Data: patent EP3002287B1, “Thiochromeno[2,3-c]quinolin-12-one derivatives and their use as topoisomerase inhibitors” (National Defense Medical Center, priority 2014, dated 2016)

Columns and labels:
ACHN = assay: NCI in vitro 60-cell drug screen (SRB assay); format: cell-based; settings: ACHN (Renal cancer); 10^-5 molar concentration; 48 hours
HOP-62 = assay: NCI in vitro 60-cell drug screen (SRB assay); format: cell-based; settings: HOP-62 (Non-small cell lung cancer); 10^-5 molar concentration; 48 hours
OVCAR-8 = assay: NCI in vitro 60-cell drug screen (SRB assay); format: cell-based; settings: OVCAR-8 (Ovarian cancer); 10^-5 molar concentration; 48 hours
SN12C = assay: NCI in vitro 60-cell drug screen (SRB assay); format: cell-based; settings: SN12C (Renal cancer); 10^-5 molar concentration; 48 hours
HCT-15 = assay: NCI in vitro 60-cell drug screen (SRB assay); format: cell-based; settings: HCT-15 (Colon cancer); 10^-5 molar concentration; 48 hours
SNB-19 = assay: NCI in vitro 60-cell drug screen (SRB assay); format: cell-based; settings: SNB-19 (CNS cancer); 10^-5 molar concentration; 48 hours
786-0 = assay: NCI in vitro 60-cell drug screen (SRB assay); format: cell-based; settings: 786-0 (Renal cancer); 10^-5 molar concentration; 48 hours
RXF 393 = assay: NCI in vitro 60-cell drug screen (SRB assay); format: cell-based; settings: RXF 393 (Renal cancer); 10^-5 molar concentration; 48 hours
MDA-MB-231/ATCC = assay: NCI in vitro 60-cell drug screen (SRB assay); format: cell-based; settings: MDA-MB-231/ATCC (Breast cancer); 10^-5 molar concentration; 48 hours
OVCAR-4 = assay: NCI in vitro 60-cell drug screen (SRB assay); format: cell-based; settings: OVCAR-4 (Ovarian cancer); 10^-5 molar concentration; 48 hours
NCI-H322M = assay: NCI in vitro 60-cell drug screen (SRB assay); format: cell-based; settings: NCI-H322M (Non-small cell lung cancer); 10^-5 molar concentration; 48 hours
U251 = assay: NCI in vitro 60-cell drug screen (SRB assay); format: cell-based; settings: U251 (CNS cancer); 10^-5 molar concentration; 48 hours
OVCAR-5 = assay: NCI in vitro 60-cell drug screen (SRB assay); format: cell-based; settings: OVCAR-5 (Ovarian cancer); 10^-5 molar concentration; 48 hours
HS 578T = assay: NCI in vitro 60-cell drug screen (SRB assay); format: cell-based; settings: HS 578T (Breast cancer); 10^-5 molar concentration; 48 hours
A549/ATCC = assay: NCI in vitro 60-cell drug screen (SRB assay); format: cell-based; settings: A549/ATCC (Non-small cell lung cancer); 10^-5 molar concentration; 48 hours
UACC-257 = assay: NCI in vitro 60-cell drug screen (SRB assay); format: cell-based; settings: UACC-257 (Melanoma); 10^-5 molar concentration; 48 hours
60 cell lines = assay: NCI in vitro 60-cell drug screen (SRB assay), whole panel statistics; settings: mean over the cell panel; 10^-5 molar concentration; 48 hours
MCF7 = assay: NCI in vitro 60-cell drug screen (SRB assay); format: cell-based; settings: MCF7 (Breast cancer); 10^-5 molar concentration; 48 hours
A498 = assay: NCI in vitro 60-cell drug screen (SRB assay); format: cell-based; settings: A498 (Renal cancer); 10^-5 molar concentration; 48 hours
MDA-MB-486 = assay: NCI in vitro 60-cell drug screen (SRB assay); format: cell-based; settings: MDA-MB-486 (Breast cancer); 10^-5 molar concentration; 48 hours
MALME-3M = assay: NCI in vitro 60-cell drug screen (SRB assay); format: cell-based; settings: MALME-3M (Melanoma); 10^-5 molar concentration; 48 hours
M14 = assay: NCI in vitro 60-cell drug screen (SRB assay); format: cell-based; settings: M14 (Melanoma); 10^-5 molar concentration; 48 hours
K-562 = assay: NCI in vitro 60-cell drug screen (SRB assay); format: cell-based; settings: K-562 (Leukemia); 10^-5 molar concentration; 48 hours
NCI-H460 = assay: NCI in vitro 60-cell drug screen (SRB assay); format: cell-based; settings: NCI-H460 (Non-small cell lung cancer); 10^-5 molar concentration; 48 hours
SF-539 = assay: NCI in vitro 60-cell drug screen (SRB assay); format: cell-based; settings: SF-539 (CNS cancer); 10^-5 molar concentration; 48 hours
SR = assay: NCI in vitro 60-cell drug screen (SRB assay); format: cell-based; settings: SR (Leukemia); 10^-5 molar concentration; 48 hours
CCRF-CEM = assay: NCI in vitro 60-cell drug screen (SRB assay); format: cell-based; settings: CCRF-CEM (Leukemia); 10^-5 molar concentration; 48 hours
NCI-H522 = assay: NCI in vitro 60-cell drug screen (SRB assay); format: cell-based; settings: NCI-H522 (Non-small cell lung cancer); 10^-5 molar concentration; 48 hours
MOLT-4 = assay: NCI in vitro 60-cell drug screen (SRB assay); format: cell-based; settings: MOLT-4 (Leukemia); 10^-5 molar concentration; 48 hours
HCT-116 = assay: NCI in vitro 60-cell drug screen (SRB assay); format: cell-based; settings: HCT-116 (Colon cancer); 10^-5 molar concentration; 48 hours
SK-MEL-2 = assay: NCI in vitro 60-cell drug screen (SRB assay); format: cell-based; settings: SK-MEL-2 (Melanoma); 10^-5 molar concentration; 48 hours
UACC-62 = assay: NCI in vitro 60-cell drug screen (SRB assay); format: cell-based; settings: UACC-62 (Melanoma); 10^-5 molar concentration; 48 hours
SNB-75 = assay: NCI in vitro 60-cell drug screen (SRB assay); format: cell-based; settings: SNB-75 (CNS cancer); 10^-5 molar concentration; 48 hours
LOX IMVI = assay: NCI in vitro 60-cell drug screen (SRB assay); format: cell-based; settings: LOX IMVI (Melanoma); 10^-5 molar concentration; 48 hours

Compound	Growth percent (ACHN)	Growth percent (HOP-62)	Growth percent (OVCAR-8)	Growth percent (SN12C)	Growth percent (HCT-15)	Growth percent (SNB-19)	Growth percent (786-0)	Growth percent (RXF 393)	Growth percent (MDA-MB-231/ATCC)	Growth percent (OVCAR-4)	Growth percent (NCI-H322M)	Growth percent (U251)	Growth percent (OVCAR-5)	Growth percent (HS 578T)	Growth percent (A549/ATCC)	Growth percent (UACC-257)	Growth percent, Mean (60 cell lines)	Growth percent (MCF7)	Growth percent (A498)	Growth percent (MDA-MB-486)	other results
O=c1c2cc(Cl)ccc2sc2c(N3CCN(Cc4ccccc4)CC3)nc3ccccc3c12 [Compound 11, 6-(4-Benzylpiperazin-1-yl)-10-chloro-12H-thiochromeno[2,3-c]q uinolin-12-one]	96.39%	87.72%	98.54%	97.70%	94.51%	95.52%	105.57%	100.71%	89.11%	102.43%	88.92%	96.69%	111.92%	76.42%	106.37%	95.39%	96.19%	68.32%	94.17%	98.53%	Growth percent (MALME-3M): 112.36%; Growth percent (M14): 93.00%; Growth percent (K-562): 87.84%; Growth percent (NCI-H460): 95.57%; Growth percent (SF-539): 108.56%; Growth percent (SR): 85.15%; Growth percent (CCRF-CEM): 95.42%; Growth percent (NCI-H522): 96.69%; Growth percent (MOLT-4): 90.91%; Growth percent (HCT-116): 98.59%; Growth percent (SK-MEL-2): 107.37%; Growth percent (UACC-62): 96.00%; Growth percent (SNB-75): 82.62%; Growth percent (LOX IMVI): 94.22%
O=c1c2cc(Cl)ccc2sc2c(N3CCOCC3)nc3ccccc3c12 [Compound 13, 10-Chloro-6-morpholino-12H-thiochromeno[2,3-c]quinolin-12-one]	82.54%	70.77%	83.66%	96.81%	93.81%	99.37%	99.31%	108.61%	71.53%	96.75%	88.41%	98.58%	95.97%	83.27%	92.97%	110.91%	90.52%	50.59%	94.15%	39.67%	Growth percent (MALME-3M): 118.84%; Growth percent (M14): 110.35%; Growth percent (K-562): 81.18%; Growth percent (NCI-H460): 99.28%; Growth percent (SF-539): 82.38%; Growth percent (SR): 88.91%; Growth percent (CCRF-CEM): 88.02%; Growth percent (NCI-H522): 89.60%; Growth percent (MOLT-4): 89.31%; Growth percent (HCT-116): 85.71%; Growth percent (SK-MEL-2): 98.77%; Growth percent (UACC-62): 87.86%; Growth percent (SNB-75): 76.88%; Growth percent (LOX IMVI): 89.82%
O=c1c2cc(Cl)ccc2sc2c(N3CCN(c4ccccc4)CC3)nc3ccccc3c12 [Compound 12, 10-Chloro-6-(4-phenylpiperazin-1-yl)-12H-thiochromeno[2,3-c] quinolin-12-one]	94.99%	86.00%	90.34%	102.66%	99.81%	105.57%	101.58%	107.68%	94.34%	94.29%	84.41%	96.09%	108.10%	85.20%	98.54%	93.68%	99.30%	74.16%	81.04%	86.34%	Growth percent (MALME-3M): 121.84%; Growth percent (M14): 104.02%; Growth percent (K-562): 112.37%; Growth percent (NCI-H460): 103.24%; Growth percent (SF-539): 100.06%; Growth percent (SR): 103.11%; Growth percent (CCRF-CEM): 98.41%; Growth percent (NCI-H522): 93.50%; Growth percent (MOLT-4): 107.23%; Growth percent (HCT-116): 105.36%; Growth percent (SK-MEL-2): 104.26%; Growth percent (UACC-62): 104.48%; Growth percent (SNB-75): 94.73%; Growth percent (LOX IMVI): 95.15%
